Structures can show the parent of a compound that is named as a salt. Where two headings read alike, the source gives them in different places.
Assays:
BN-rats = assay: Effect of locally (intratracheally) administered polysulfated glycosides on airways' hyperresponsiveness ex vivo (tracheal contraction to acetylcholine after antigen challenge); format: in vivo, Brown Norway (BN) rats; conditions: Control 100 ± 0, Placebo 334 ± 68
Experimental: Brown Norway (BN) rats were actively sensitized to ovalbumin (OA) by a subcutaneous injection of 0.5 ml of OA/A1(OH)3 gel mixture (2 mg OA+10 g A1(OH)3/100 ml saline) on day 1 with subsequent subcutaneous injections (10 mg OA+10 g A1(OH)3/100 ml saline) given on days 14 and 21. On day 28, animals received the compound described in example 4 intratracheally (0.01; 0.1 or 1.0 mg/kg dose) 2 hours before antigen challenge. Antigen challenge was performed by inhalation of nebulised ovalbumin (1% antigen solution administered in a TSE inhalation system for 1 hour). Animals were sacrificed 48 hours post antigen challenge wherein the tracheas were removed to an organ bath. Dissected tracheas were allowed to equilibrate for 30 minutes before measuring tracheal spasmogenic response curves to acetylcholine (Ach).
As shown in Table 1 ovalbumin challenge of sensitized animals in this model caused a significant tracheal hyper-reactivity to acetylcholine, when the response to the spasmogenic agent was determined 48 h after antigen challenge.

BN rats [1] = assay: Effect on the allergen stimulated mucus production of airways epithelial cells (PAS(+) cell count in lung sections); format: in vivo, Brown Norway (BN) rats; conditions: lungs 48 hours after challenge, Control 2.2 ± 0.9, Challenge 15.8 ± 2.8
Experimental: Sensitized BN rats were treated intratracheally with varying (0.01-1.0 mg/kg) dose of compound described in example 4, two hours before antigenic challenge, using a similar protocol described in Model 1. Lungs were collected 48 hours after challenge and were fixed in 8% phosphate buffered formaldehyde. Samples were then processed for histochemistry routinely. 5 μm thick sections were stained with periodic-acid-Schiff (PAS) reagents and were counterstained with haematoxylineosine. On the sections each epithelial cells of the airways were counted in the whole preparation at a magnification of 400×. The number of PAS(+) [mucus producing] epithelial cells was expressed as the ratio of the total number of epithelial cells.
As it is shown in Table 2, allergen challenge stimulates the mucus production of airways epithelial cells (control vs. challenge).

BN rats [2] = assay: Effect on the extent of perivascular oedema developed in asthmatic lung tissue; format: in vivo, Brown Norway (BN) rats; conditions: Control 55 ± 6, Challenge 209 ± 12
Experimental: Sensitized BN rats were treated intratracheally with varying (0.01-1.0 mg/kg) dose of compound described in example 4, two hours before antigenic challenge, using a similar protocol described in Model 1. Lungs were collected […] and were fixed in 8% phosphate buffered formaldehyde. Samples were then processed for histochemistry routinely. 5 μm thick sections were stained with periodic-acid-Schiff (PAS) reagents and were counterstained with haematoxylineosine. On the 5 μm sections, the area of the connective tissue around the vasculare was determined and expressed as a ratio of the area of the corresponding blood vessel itself.

IP-3 receptor = target: T1, IP-3 receptor (Rattus norvegicus, UniProt P29994); assay: IP-3 receptor antagonistic effect: inhibition of IP3 binding to its receptor in rat cerebellum membrane preparations
T1 construct: determined using rat cerebellum membrane preparations; from tissue; host or cells: rat cerebellum (microsomal membrane preparation)
T1 sequence (P29994 whole entry): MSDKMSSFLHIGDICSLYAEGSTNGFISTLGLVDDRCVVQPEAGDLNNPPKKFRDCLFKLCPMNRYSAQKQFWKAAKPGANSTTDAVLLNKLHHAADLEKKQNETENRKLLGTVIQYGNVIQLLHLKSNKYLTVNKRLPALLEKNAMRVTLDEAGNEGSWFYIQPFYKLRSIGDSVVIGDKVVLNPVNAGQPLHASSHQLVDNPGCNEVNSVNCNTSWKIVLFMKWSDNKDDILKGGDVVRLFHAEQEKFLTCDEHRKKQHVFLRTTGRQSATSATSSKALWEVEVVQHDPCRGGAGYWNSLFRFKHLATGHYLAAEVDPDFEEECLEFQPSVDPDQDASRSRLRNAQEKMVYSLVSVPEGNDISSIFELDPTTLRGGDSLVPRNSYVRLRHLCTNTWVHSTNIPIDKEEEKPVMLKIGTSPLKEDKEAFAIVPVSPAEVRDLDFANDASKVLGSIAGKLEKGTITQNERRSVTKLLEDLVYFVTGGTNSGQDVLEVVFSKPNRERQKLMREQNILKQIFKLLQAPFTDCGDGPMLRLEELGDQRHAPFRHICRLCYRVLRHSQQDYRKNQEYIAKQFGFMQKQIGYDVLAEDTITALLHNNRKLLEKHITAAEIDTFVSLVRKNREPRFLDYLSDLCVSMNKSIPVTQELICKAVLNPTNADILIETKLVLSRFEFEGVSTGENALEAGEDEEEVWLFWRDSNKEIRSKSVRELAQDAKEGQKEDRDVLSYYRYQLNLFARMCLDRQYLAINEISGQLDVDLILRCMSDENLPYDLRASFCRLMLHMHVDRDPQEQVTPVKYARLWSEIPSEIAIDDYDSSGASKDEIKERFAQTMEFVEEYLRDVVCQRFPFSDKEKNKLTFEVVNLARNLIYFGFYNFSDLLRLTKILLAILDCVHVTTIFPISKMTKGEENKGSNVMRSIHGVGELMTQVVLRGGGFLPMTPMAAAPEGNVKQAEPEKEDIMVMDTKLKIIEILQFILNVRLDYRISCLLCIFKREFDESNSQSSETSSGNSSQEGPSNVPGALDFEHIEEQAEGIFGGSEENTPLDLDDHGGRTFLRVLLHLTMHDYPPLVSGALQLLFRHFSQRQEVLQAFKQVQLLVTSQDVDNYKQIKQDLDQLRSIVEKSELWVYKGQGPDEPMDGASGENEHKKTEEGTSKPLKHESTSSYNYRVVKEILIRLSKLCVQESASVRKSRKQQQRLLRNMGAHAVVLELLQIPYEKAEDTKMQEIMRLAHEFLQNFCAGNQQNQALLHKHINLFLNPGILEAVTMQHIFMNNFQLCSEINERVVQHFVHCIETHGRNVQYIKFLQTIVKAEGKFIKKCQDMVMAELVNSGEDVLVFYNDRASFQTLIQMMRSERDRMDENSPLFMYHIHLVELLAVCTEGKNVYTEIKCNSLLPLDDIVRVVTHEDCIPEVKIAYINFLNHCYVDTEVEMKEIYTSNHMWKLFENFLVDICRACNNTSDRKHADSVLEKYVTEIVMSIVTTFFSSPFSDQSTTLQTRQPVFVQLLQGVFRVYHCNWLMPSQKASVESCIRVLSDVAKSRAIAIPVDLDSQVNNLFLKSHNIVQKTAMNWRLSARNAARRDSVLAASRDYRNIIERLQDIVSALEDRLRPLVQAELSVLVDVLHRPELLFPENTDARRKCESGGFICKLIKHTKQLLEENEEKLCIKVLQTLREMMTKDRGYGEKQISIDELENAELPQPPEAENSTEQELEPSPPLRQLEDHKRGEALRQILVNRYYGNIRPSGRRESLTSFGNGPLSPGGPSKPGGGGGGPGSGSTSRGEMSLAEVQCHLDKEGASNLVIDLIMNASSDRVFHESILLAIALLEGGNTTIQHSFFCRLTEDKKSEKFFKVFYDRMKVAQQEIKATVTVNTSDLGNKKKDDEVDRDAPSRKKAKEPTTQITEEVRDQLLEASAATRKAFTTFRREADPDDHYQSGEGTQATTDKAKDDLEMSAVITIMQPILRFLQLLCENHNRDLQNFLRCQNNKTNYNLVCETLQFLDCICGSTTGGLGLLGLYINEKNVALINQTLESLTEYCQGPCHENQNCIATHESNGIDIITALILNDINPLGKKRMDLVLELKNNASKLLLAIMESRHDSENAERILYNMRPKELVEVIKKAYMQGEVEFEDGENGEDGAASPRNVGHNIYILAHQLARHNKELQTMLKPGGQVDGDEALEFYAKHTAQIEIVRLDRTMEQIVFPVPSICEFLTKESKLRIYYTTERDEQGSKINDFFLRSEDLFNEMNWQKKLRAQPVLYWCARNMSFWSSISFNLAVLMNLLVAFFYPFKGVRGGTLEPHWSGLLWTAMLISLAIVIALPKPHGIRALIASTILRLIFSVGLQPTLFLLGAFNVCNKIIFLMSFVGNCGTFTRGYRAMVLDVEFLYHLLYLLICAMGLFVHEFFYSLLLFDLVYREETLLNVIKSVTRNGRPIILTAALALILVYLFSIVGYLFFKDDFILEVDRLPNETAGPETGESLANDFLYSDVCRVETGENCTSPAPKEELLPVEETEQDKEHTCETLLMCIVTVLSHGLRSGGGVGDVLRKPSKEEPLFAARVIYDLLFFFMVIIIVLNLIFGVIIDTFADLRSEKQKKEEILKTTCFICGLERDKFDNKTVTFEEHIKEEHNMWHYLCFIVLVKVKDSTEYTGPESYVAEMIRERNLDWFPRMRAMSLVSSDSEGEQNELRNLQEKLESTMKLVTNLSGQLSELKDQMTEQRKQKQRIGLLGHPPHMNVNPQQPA
Experimental: Glycosides of the present invention, depending on their chemical structure, inhibit the binding of inositol-1,4,5-trisphosphate (IP3) to its receptor in microsomal membrane preparations. As IP3 is a messenger molecule playing distinguished role in the activation of different cells, interfering with this function can explain the anti-asthmatic effect of these polysulfated glycosides.
The IP3 antagonist effect of the polysulfated glycosides were determined using rat cerebellum membrane preparations according to Worley et al. (JBC 262, 12132, 1987).

[3] = 0.01 mg/kg intratracheally two hours before antigenic challenge
[4] = 0.1 mg/kg intratracheally two hours before antigenic challenge

- IC50 (IP-3 receptor; read-out: Average IC50): 163 nM
- IC50 (IP-3 receptor; read-out: IC 50 (μg/ml) Average ± SEM (n) (converted)): 216 nM
SMILES: O=S(=O)(O)OC[C@H](OS(=O)(=O)O)[C@@H](O[C@@H]1O[C@H](COS(=O)(=O)O)[C@@H](OS(=O)(=O)O)[C@H](OS(=O)(=O)O)[C@H]1OS(=O)(=O)O)[C@H](OS(=O)(=O)O)[C@@H](COS(=O)(=O)O)OS(=O)(=O)O [Example 4, 1,2,4,5,6-penta-O-sulfato-3-O-(2,3,4,6-tetra-β-sulfato-β-D-glucopyranosyl)-D-glucitol nona potassium salt]
- MAX: Contraction at maximal Ach concentration relative to control (mean ± SEM) (BN-rats; 0.01 mg/kg intratracheally 2 hours before ovalbumin challenge): 134 ± 26
- MAX: Contraction at maximal Ach concentration relative to control (mean ± SEM) (BN-rats; 1.0 mg/kg intratracheally 2 hours before ovalbumin challenge): 116 ± 37
- number of PAS(+) cells as percent of total number of cells (average ± SEM) (BN rats [1]; [3]): 15.0 ± 2.7%
- number of PAS(+) cells as percent of total number of cells (average ± SEM) (BN rats [1]; [4]): 6.3 ± 1.5%
- Oedema: area of oedema relative to area of vasculature (average ± SEM) (BN rats [2]; [3]): 113 ± 7
- Oedema: area of oedema relative to area of vasculature (average ± SEM) (BN rats [2]; [4]): 106 ± 8

Reference: patent US8987216B2, “Polysulfated glycosides and salts thereof” (Teva Hungary Pharmaceutical Marketing Private Limited …, priority 2004, dated 2015)
